The EC30 is the point of the concentration-response curve where the effect stands at 30%.

Some results are limits rather than exact numbers.

T1 sequence (P13569 with tags, fused parts or gaps DEL508-508): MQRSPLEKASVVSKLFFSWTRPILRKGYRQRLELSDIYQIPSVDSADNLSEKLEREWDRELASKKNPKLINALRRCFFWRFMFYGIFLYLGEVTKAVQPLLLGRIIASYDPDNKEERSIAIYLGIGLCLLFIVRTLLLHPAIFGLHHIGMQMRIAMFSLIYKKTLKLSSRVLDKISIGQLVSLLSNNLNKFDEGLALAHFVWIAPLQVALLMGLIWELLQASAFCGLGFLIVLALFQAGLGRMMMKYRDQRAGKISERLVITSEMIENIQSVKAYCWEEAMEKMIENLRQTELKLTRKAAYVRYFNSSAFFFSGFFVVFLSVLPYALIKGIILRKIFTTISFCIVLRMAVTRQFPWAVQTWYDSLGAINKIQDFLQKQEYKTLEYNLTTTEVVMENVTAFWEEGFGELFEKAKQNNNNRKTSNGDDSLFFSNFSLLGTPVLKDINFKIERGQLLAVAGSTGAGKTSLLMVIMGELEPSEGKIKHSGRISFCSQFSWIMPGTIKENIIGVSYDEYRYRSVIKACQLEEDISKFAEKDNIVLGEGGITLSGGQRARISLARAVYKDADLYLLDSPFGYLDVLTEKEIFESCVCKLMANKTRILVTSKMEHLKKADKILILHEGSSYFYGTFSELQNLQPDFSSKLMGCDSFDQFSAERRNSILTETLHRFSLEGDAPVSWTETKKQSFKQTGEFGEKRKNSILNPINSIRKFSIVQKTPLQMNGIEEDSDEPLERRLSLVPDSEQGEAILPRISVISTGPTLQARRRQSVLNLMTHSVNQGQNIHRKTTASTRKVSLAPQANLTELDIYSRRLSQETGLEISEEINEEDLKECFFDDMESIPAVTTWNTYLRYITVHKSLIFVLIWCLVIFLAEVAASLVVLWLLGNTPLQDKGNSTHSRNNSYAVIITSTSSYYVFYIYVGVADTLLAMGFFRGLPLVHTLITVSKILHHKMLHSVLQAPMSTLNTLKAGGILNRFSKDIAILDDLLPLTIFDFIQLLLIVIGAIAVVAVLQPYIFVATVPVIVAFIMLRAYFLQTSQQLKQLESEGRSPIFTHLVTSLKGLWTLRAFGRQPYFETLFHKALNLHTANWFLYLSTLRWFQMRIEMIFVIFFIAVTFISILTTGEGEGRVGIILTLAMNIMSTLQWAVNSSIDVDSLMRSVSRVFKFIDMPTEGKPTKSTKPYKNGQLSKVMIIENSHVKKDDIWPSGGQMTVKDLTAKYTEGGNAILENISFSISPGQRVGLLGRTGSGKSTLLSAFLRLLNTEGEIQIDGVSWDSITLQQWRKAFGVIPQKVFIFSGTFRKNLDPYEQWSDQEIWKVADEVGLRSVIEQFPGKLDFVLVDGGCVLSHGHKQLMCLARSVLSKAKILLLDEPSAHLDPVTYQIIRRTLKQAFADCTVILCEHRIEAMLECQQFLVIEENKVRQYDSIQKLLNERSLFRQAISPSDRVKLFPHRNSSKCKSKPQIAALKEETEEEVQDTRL

One assay addresses T1, F508del (Homo sapiens, UniProt P13569, DEL508-508).
T1 construct: expressed in transfected cells
The assay can be described thus: Protocol 2: FRET membrane potential optical assay (VIPR), identification of correction compounds. The format is cell-based. As to conditions: F508del CFTR modulator activity; compounds of Table 1; read-out: EC30. Summed up: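 NIH3T3 mouse fibroblasts stably expressing F508del were treated with test compound for 16 hrs at 37° C. in serum-free medium; 27° C. incubation served as positive control. F508del was activated with 10 μM forskolin plus 20 μM genistein in Cl^−-free medium, and Cl^− efflux-driven depolarization was read by DiSBAC2(3)/CC2-DMPE FRET.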
As to `COc1ccc2nc(N3C[C@@H](C)CC3(C)C)c(C(=O)NS(=O)(=O)c3cccc(N)n3)cc2c1` [Compound 2196, N-[(6-amino-2-pyridyl)sulfonyl]-6-methoxy-2-[(4S)-2,2,4-trimethylpyrrolidin-1-yl]quinoline-3-carboxamide], the EC30 is < 3 µM.
In the case of `Cc1nc2cc(Oc3cccc(S(=O)(=O)NC(=O)c4cccnc4N4CC(C)CC4(C)C)n3)ccc2s1` (stereo not shown) [Compound 2729], the EC30 was < 3 µM.
In the case of `CC(=O)Nc1cccc(Nc2cccc(S(=O)(=O)NC(=O)c3cccnc3N3CC(C)CC3(C)C)n2)c1` (stereo not shown) [Compound 2387, N—[[6-(3-acetamidoanilino)-2-pyridyl]sulfonyl]-2-(2,2,4-trimethylpyrrolidin-1-yl)pyridine-3-carboxamide], the EC30 was in the range of 3 to 10 µM.
For `COc1cccc(-c2ccc(C(=O)NS(=O)(=O)c3cccnc3N)c(N3C[C@@H](C)CC3(C)C)n2)c1F` [Compound 2562, N-[(2-amino-3-pyridyl)sulfonyl]-6-(2-fluoro-3-methoxy-phenyl)-2-[(4S)-2,2,4-trimethylpyrrolidin-1-yl]pyridine-3-carboxamide], the EC30 was < 3 µM.
On to `CNc1cccc(S(=O)(=O)NC(=O)c2cccnc2N2CC(C)CC2(C)C)n1` (stereo not shown) [Compound 2535, N—[[6-(methylamino)-2-pyridyl]sulfonyl]-2-(2,2,4-trimethylpyrrolidin-1-yl)pyridine-3-carboxamide], for which the EC30 was 3 to 10 µM.
Still for that read-out and setting: the figure for `Cc1ccc(-c2ccc(C(=O)NS(=O)(=O)c3ccc[nH]c3=O)c(N3C[C@@H](C)CC3(C)C)n2)cc1` [Compound 2438, N-[(2-oxo-1H-pyridin-3-yl)sulfonyl]-6-(p-tolyl)-2-[(4S)-2,2,4-trimethylpyrrolidin-1-yl]pyridine-3-carboxamide] is < 3 µM; for `COc1cccc(F)c1-c1ccc(C(=O)NS(=O)(=O)c2cccnc2N)c(N2C[C@@H](C)CC2(C)C)n1` [Compound 2033, N-[(2-amino-3-pyridyl)sulfonyl]-6-(2-fluoro-6-methoxy-phenyl)-2-[(4S)-2,2,4-trimethylpyrrolidin-1-yl]pyridine-3-carboxamide] it is < 3 µM; for `CC(C)(C)c1ccc(C(=O)NS(=O)(=O)c2cccc(N)n2)c(N2CCC(C3CCOCC3)C2(C)C)n1` (stereo not shown) [Compound 2139] it is < 3 µM.
On the same count and under the same terms, under `C[C@@H]1CN(c2nc(-c3ccccc3F)ccc2C(=O)NS(=O)(=O)N2CC[C@H](N)C2)C(C)(C)C1` [Compound 2045, N-[(3S)-3-aminopyrrolidin-1-yl]sulfonyl-6-(2-fluorophenyl)-2-[(4S)-2,2,4-trimethylpyrrolidin-1-yl]pyridine-3-carboxamide] stands 3 to 10 µM; under `CC1CN(c2ncccc2C(=O)NS(=O)(=O)c2cccc(OC3CCOc4ccccc43)n2)C(C)(C)C1` (stereo not shown) [Compound 2737], < 3 µM; under `CC1CN(c2ncccc2C(=O)NS(=O)(=O)c2cccc(Nc3cccc(C#N)c3)n2)C(C)(C)C1` (stereo not shown) [Compound 2484, N—[[6-(3-cyanoanilino)-2-pyridyl]sulfonyl]-2-(2,2,4-trimethylpyrrolidin-1-yl)pyridine-3-carboxamide], < 3 µM.
For `Cc1cc(C(=O)c2ccccc2)cc(C)c1Oc1nc(-c2cc(F)cc(OCC(C)C)c2)ccc1C(=O)NS(=O)(=O)c1cccc(N)n1` [Compound 2669, N-[(6-amino-2-pyridyl)sulfonyl]-2-(4-benzoyl-2,6-dimethyl-phenoxy)-6-(3-fluoro-5-isobutoxy-phenyl)pyridine-3-carboxamide], the EC30 was < 3 µM.
Take `C[C@@H]1CN(c2nc(C3=CCCN(C(=O)Cc4ccccc4)C3)ccc2C(=O)NS(=O)(=O)c2cccc(NC(=O)Cc3ccccc3)n2)C(C)(C)C1` [Compound 2243, N—[[6-[(2-phenylacetyl)amino]-2-pyridyl]sulfonyl]-6-[1-(2-phenylacetyl)-3,6-dihydro-2H-pyridin-5-yl]-2-[(4S)-2,2,4-trimethylpyrrolidin-1-yl]pyridine-3-carboxamide]: the EC30 is < 3 µM.
Still for that read-out and setting: the figure for `COCCOc1ncc(-c2ccc(C(=O)NS(=O)(=O)c3cccc(N)n3)c(N3C[C@@H](C)CC3(C)C)n2)cc1C` [Compound 2582, N-[(6-amino-2-pyridyl)sulfonyl]-6-[6-(2-methoxyethoxy)-5-methyl-3-pyridyl]-2-[(4S)-2,2,4-trimethylpyrrolidin-1-yl]pyridine-3-carboxamide] is < 3 µM; for `CC1CN(c2ncccc2C(=O)NS(=O)(=O)c2cccc(OCC3CC3)n2)C(C)(C)C1` (stereo not shown) [Compound 2342, N—[[6-(cyclopropylmethoxy)-2-pyridyl]sulfonyl]-2-(2,2,4-trimethylpyrrolidin-1-yl)pyridine-3-carboxamide] it is < 3 µM; for `CC1CN(c2ncccc2C(=O)NS(=O)(=O)c2cccc(Oc3ccc(C#N)cc3)n2)C(C)(C)C1` (stereo not shown) [Compound 2076, N—[[6-(4-cyanophenoxy)-2-pyridyl]sulfonyl]-2-(2,2,4-trimethylpyrrolidin-1-yl)pyridine-3-carboxamide] it is < 3 µM.

Staying with this assay, now noted: Table 3; compounds of Table 1 as modulators of CFTR activity; protocol not stated.
Turning to `Cc1ccccc1C(C)Oc1nc(-c2cc(F)cc(OCC(C)C)c2)ccc1C(=O)NS(=O)(=O)c1cccc(N)n1` (stereo not shown) [Compound 782, N-[(6-amino-2-pyridyl)sulfonyl]-6-(3-fluoro-5-isobutoxy-phenyl)-2-[1-(o-tolyl)ethoxy]pyridine-3-carboxamide], the EC30 result was “+++ (“+++” means <3 uM)”.
Same read-out and setting: under `COc1ccc(S(=O)(=O)NC(=O)c2ccc(C(C)(C)C)nc2-c2ccc(C)cc2)cc1` [Compound 206, 6-tert-butyl-N-(4-methoxyphenyl)sulfonyl-2-(p-tolyl)pyridine-3-carboxamide] stands “+++ (“+++” means <3 uM)”; under `Cc1cc(C)c(CN2Cc3ccccc3C2(C)C(=O)NS(=O)(=O)c2nccnc2N)c(C)c1` (stereo not shown) [Compound 480, N-(3-aminopyrazin-2-yl)sulfonyl-1-methyl-2-[(2,4,6-trimethylphenyl)methyl]isoindoline-1-carboxamide], “+++ (“+++” means <3 uM)”; under `COC(=O)C(C(=O)c1cc(C(C)(C)C)nn1Cc1c(C)cccc1C)S(=O)(=O)c1ccccc1` (stereo not shown) [Compound 4, Methyl 2-(benzenesulfonyl)-3-[5-tert-butyl-2-[(2,6-dimethylphenyl)methyl]pyrazol-3-yl]-3-oxo-propanoate], “+ (“+” means greater than 10 uM)”.
With `CC(C)COc1cc(F)cc(-c2ccc(C(=O)NS(=O)(=O)c3ccn[nH]3)c(N3CCc4ccccc43)n2)c1` [Compound 739, 6-(3-fluoro-5-isobutoxy-phenyl)-2-indolin-1-yl-N-(1H-pyrazol-5-ylsulfonyl)pyridine-3-carboxamide], the EC30 entry is “++ (“++” means between 3 uM and 10 uM)”.
The same measure, in the same setting: the entry for `CC1(CNc2nc(C(C)(C)C)ccc2C(=O)NS(=O)(=O)c2ccc(N)cc2)CCOCC1` [Compound 752, N-(4-aminophenyl)sulfonyl-6-tert-butyl-2-[(4-methyltetrahydropyran-4-yl)methylamino]pyridine-3-carboxamide] is “++ (“++” means between 3 uM and 10 uM)”; for `CCc1cccc(S(=O)(=O)NC(=O)c2ccc(C(C)(C)C)nc2-c2ccc(C)cc2)c1` [Compound 50, 6-tert-butyl-N-(3-ethylphenyl)sulfonyl-2-(p-tolyl)pyridine-3-carboxamide] it is “+++ (“+++” means <3 uM)”.
On the same count and under the same terms, the entry for `CC(C)COc1cc(F)cc(-c2ccc(C(=O)NS(=O)(=O)c3cccc(N)n3)c(N3CCCC(C4CC4)C3)n2)c1` (stereo not shown) [Compound 655, N-[(6-amino-2-pyridyl)sulfonyl]-2-(3-cyclopropyl-1-piperidyl)-6-(3-fluoro-5-isobutoxy-phenyl)pyridine-3-carboxamide] is “+++ (“+++” means <3 uM)”; for `COc1ncc(F)cc1-c1ccc(C(=O)NS(=O)(=O)c2cccc(N)n2)c(Oc2c(C)cc(C)cc2C)n1` [Compound 387, N-[(6-amino-2-pyridyl)sulfonyl]-6-(5-fluoro-2-methoxy-3-pyridyl)-2-(2,4,6-trimethylphenoxy)pyridine-3-carboxamide] it is “+++ (“+++” means <3 uM)”; for `CC(C)Oc1ccc(-c2ccc(C(=O)NS(=O)(=O)c3cccc(N)n3)c(N3CC(c4ccccc4)CC3C)n2)cn1` (stereo not shown) [Compound 502, N-[(6-amino-2-pyridyl)sulfonyl]-6-(6-isopropoxy-3-pyridyl)-2-(2-methyl-4-phenyl-pyrrolidin-1-yl)pyridine-3-carboxamide] it is “+++ (“+++” means <3 uM)”.
Still for that read-out and setting: the entry for `COc1ccc2c(c1)cc(C(=O)NS(=O)(=O)c1ccccc1)n2Cc1c(C)cc(C)cc1C` [Compound 241, N-(benzenesulfonyl)-5-methoxy-1-[(2,4,6-trimethylphenyl)methyl]indole-2-carboxamide] is “+++ (“+++” means <3 uM)”; for `Cc1cccc(-c2nc(C(C)(C)C)ccc2C(=O)NS(=O)(=O)c2cccc(N)n2)c1` [Compound 31, N-[(6-amino-2-pyridyl)sulfonyl]-6-tert-butyl-2-(m-tolyl)pyridine-3-carboxamide] it is “++ (“++” means between 3 uM and 10 uM)”; for `Cc1cc(C)c(Cn2c(C(=O)NS(=O)(=O)c3ccccc3O)cc3ccccc32)c(C)c1` [Compound 112, N-(2-hydroxyphenyl)sulfonyl-1-[(2,4,6-trimethylphenyl)methyl]indole-2-carboxamide] it is “+++ (“+++” means <3 uM)”.
`Cc1cc(C)c(Cn2c(C(=O)NS(=O)(=O)c3ccncc3)cc3c(Cl)cccc32)c(C)c1` [Compound 82, 4-chloro-N-(4-pyridylsulfonyl)-1-[(2,4,6-trimethylphenyl)methyl]indole-2-carboxamide]: the EC30 entry is given as “+++ (“+++” means <3 uM)”.
Turning to `CC(C)(C)c1cc(C(=O)NS(=O)(=O)c2cccc(N)c2)n(Cc2c(F)cccc2C(F)(F)F)n1` [Compound 239, N-(3-aminophenyl)sulfonyl-5-tert-butyl-2-[[2-fluoro-6-(trifluoromethyl)phenyl]methyl]pyrazole-3-carboxamide], the EC30 result is “+++ (“+++” means <3 uM)”.

The record behind these values is patent US10758534B2 (Vertex Pharmaceuticals Incorporated, priority 2014, dated 2020).
